# Measured values from patent US12673944B2, “Compounds having inhibitory activity against glucosylceramide synthase or pharmaceutically acceptable salt thereof, processes for preparing the same, and pharmaceutical compositions comprising the same” (YUHAN CORPORATION, priority 2019, dated 2026).
# Key:
# [1] = tested on: GM1 production in Jurkat cells; experiment: cells; assay type: cell-based; details: Homo sapiens, Jurkat, 72 h
# [2] = target: T1, glucosylceramide synthase (GCS) (Homo sapiens, UniProt Q16739); experiment: GCS enzyme inhibition assay (A549 cell lysate, NBD C6-ceramide, HPLC fluorescence); assay type: biochemical; details: inhibitory activity against GCS, 37° C., 90 minutes
# T1 construct: The obtained supernatant was used; host or cells: A549 cells (lysate supernatant after sonication)
# T1 sequence (Q16739 1-394): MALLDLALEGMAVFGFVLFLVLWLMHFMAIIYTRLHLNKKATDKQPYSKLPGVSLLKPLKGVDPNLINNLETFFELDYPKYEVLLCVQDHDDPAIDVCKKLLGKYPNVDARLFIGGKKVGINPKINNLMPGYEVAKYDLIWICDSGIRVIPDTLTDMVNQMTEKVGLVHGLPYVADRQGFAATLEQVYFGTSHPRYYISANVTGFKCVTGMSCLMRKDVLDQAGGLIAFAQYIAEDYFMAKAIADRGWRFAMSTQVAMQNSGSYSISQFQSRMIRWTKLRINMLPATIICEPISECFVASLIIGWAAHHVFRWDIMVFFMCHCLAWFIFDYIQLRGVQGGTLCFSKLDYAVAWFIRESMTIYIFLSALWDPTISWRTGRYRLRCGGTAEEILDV
# Summary of the method: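 Percent GCS activity was derived from the GlcCer share of Cer plus GlcCer areas, scaled from ibiglustat (0%) to DMSO (100%). Enzyme came from sonicated A549 lysate in 50 mM HEPES pH 7.3; 90 min incubation at 37° C, chloroform/methanol stop and extraction.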
smiles,measurement,setting,value
"COc1cc2c(cc1-c1ccc(C(C)(C)C)cc1)OCC(C)(C)C2NC(=O)O[C@@H]1CN2CCC1CC2 (stereo partly drawn) [Example 364, (S)-quinuclidin-3-yl (7-(4-(tert-butyl)phenyl)-6-methoxy-3,3-dimethylchroman-4-yl)carbamate]",IC50,[1],2 nM
same,IC50,[2],0.43 nM
"CC1(C)COc2cc(-c3cncs3)ccc2C1NC(=O)O[C@@H]1CN2CCC1CC2 (stereo partly drawn) [Example 243, (S)-quinuclidin-3-yl (3,3-dimethyl-7-(thiazol-5-yl)chroman-4-yl)carbamate]",IC50,[1],24.1 nM
same,IC50,[2],1.9 nM
"CC1(C)COc2cc(-c3cccc4cc[nH]c34)ccc2C1NC(=O)O[C@@H]1CN2CCC1CC2 (stereo partly drawn) [Example 173, (S)-quinuclidin-3-yl (7-(1H-indol-7-yl)-3,3-dimethylchroman-4-yl)carbamate]",IC50,[1],2.95 nM
same,IC50,[2],1.17 nM
"COc1cc2c(cc1-c1ccc(OC(C)C)c(Cl)c1)OCC(C)(C)C2NC(=O)O[C@@H]1CN2CCC1CC2 (stereo partly drawn) [Example 363, (S)-quinuclidin-3-yl (7-(3-chloro-4-isopropoxyphenyl)-6-methoxy-3,3-dimethylchroman-4-yl)carbamate]",IC50,[1],8.7 nM
same,IC50,[2],0.75 nM
"Cn1c(-c2ccc3c(c2)OCCC3NC(=O)O[C@@H]2CN3CCC2CC3)cc2ccccc21 (stereo partly drawn) [Example 52, (S)-quinuclidin-3-yl (7-(1-methyl-1H-indol-2-yl)chroman-4-yl)carbamate]",IC50,[1],24.8 nM
same,IC50,[2],7.06 nM
"O=C(NC1CCOc2cc(-c3cccc4cc[nH]c34)ccc21)O[C@@H]1CN2CCC1CC2 (stereo partly drawn) [Example 47, (S)-quinuclidin-3-yl (7-(1H-indol-7-yl)chroman-4-yl)carbamate]",IC50,[1],10.5 nM
same,IC50,[2],2.55 nM
"CC1(C)COc2cc(-c3cc(F)cc(F)c3)ccc2C1NC(=O)O[C@@H]1CN2CCC1CC2 (stereo partly drawn) [Example 240, (S)-quinuclidin-3-yl (7-(3,5-difluorophenyl)-3,3-dimethylchroman-4-yl)carbamate]",IC50,[1],5 nM
same,IC50,[2],0.92 nM
"CC1(C)COc2cc(-c3cccc4ccccc34)ccc2C1NC(=O)O[C@@H]1CN2CCC1CC2 (stereo partly drawn) [Example 131, (S)-quinuclidin-3-yl (3,3-dimethyl-7-(naphthalen-1-yl)chroman-4-yl)carbamate]",IC50,[1],1.21 nM
same,IC50,[2],1.02 nM
"CN(C)c1cccc(-c2ccc3c(c2)SCCC3NC(=O)O[C@@H]2CN3CCC2CC3)c1 (stereo partly drawn) [Example 326, (S)-quinuclidin-3-yl (7-(3-(dimethylamino)phenyl)thiochroman-4-yl)carbamate]",IC50,[1],10.3 nM
same,IC50,[2],0.64 nM
"COc1cc2c(cc1-c1cccc(F)c1)OCC(C)(C)C2NC(=O)O[C@@H]1CN2CCC1CC2 (stereo partly drawn) [Example 349, (S)-quinuclidin-3-yl (7-(3-fluorophenyl)-6-methoxy-3,3-dimethylchroman-4-yl)carbamate]",IC50,[1],3.2 nM
same,IC50,[2],0.32 nM
"CC1(C)COc2cc(-c3cc(Cl)ccc3Cl)ccc2C1NC(=O)O[C@@H]1CN2CCC1CC2 (stereo partly drawn) [Example 150, (S)-quinuclidin-3-yl (7-(2,5-dichlorophenyl)-3,3-dimethylchroman-4-yl)carbamate]",IC50,[1],0.4 nM
same,IC50,[2],0.72 nM
"Cc1cc(-c2ccc3c(c2)OCC(C)(C)C3NC(=O)O[C@@H]2CN3CCC2CC3)cc(C)c1OC(C)C (stereo partly drawn) [Example 263, (S)-quinuclidin-3-yl (7-(4-isopropoxy-3,5-dimethylphenyl)-3,3-dimethylchroman-4-yl)carbamate]",IC50,[1],4 nM
same,IC50,[2],1.44 nM
"CC(C)COc1ccc(-c2cc3c(cc2F)C(NC(=O)O[C@@H]2CN4CCC2CC4)C(C)(C)CO3)cc1 (stereo partly drawn) [Example 347, (S)-quinuclidin-3-yl (6-fluoro-7-(4-isobutoxyphenyl)-3,3-dimethylchroman-4-yl)carbamate]",IC50,[1],0.02 nM
same,IC50,[2],0.23 nM
"CC1(C)COc2cc(-c3coc4ccccc34)ccc2C1NC(=O)O[C@@H]1CN2CCC1CC2 (stereo partly drawn) [Example 147, (S)-quinuclidin-3-yl (7-(benzofuran-3-yl)-3,3-dimethylchroman-4-yl)carbamate]",IC50,[1],1 nM
same,IC50,[2],0.4 nM
"Cc1cscc1-c1ccc2c(c1)OCCC2(C)NC(=O)O[C@@H]1CN2CCC1CC2 (stereo partly drawn) [Example 311, (S)-quinuclidin-3-yl (4-methyl-7-(4-methylthiophen-3-yl)chroman-4-yl)carbamate]",IC50,[1],0.7 nM
same,IC50,[2],0.17 nM
"CN(C)c1cccc(-c2ccc3c(c2)OCCC3(C)NC(=O)O[C@@H]2CN3CCC2CC3)c1 (stereo partly drawn) [Example 303, (S)-quinuclidin-3-yl (7-(3-(dimethylamino)phenyl)-4-methylchroman-4-yl)carbamate]",IC50,[1],3.2 nM
same,IC50,[2],0.5 nM
"COc1cncc(-c2ccc3c(c2)OCC(C)(C)C3NC(=O)O[C@@H]2CN3CCC2CC3)c1 (stereo partly drawn) [Example 207, (S)-quinuclidin-3-yl (7-(5-methoxypyridin-3-yl)-3,3-dimethylchroman-4-yl)carbamate]",IC50,[1],1.06 nM
same,IC50,[2],1.12 nM
"COc1ccc(-c2cc3c(cc2OC)C(NC(=O)O[C@@H]2CN4CCC2CC4)C(C)(C)CO3)c(F)c1 (stereo partly drawn) [Example 360, (S)-quinuclidin-3-yl (7-(2-fluoro-4-methoxyphenyl)-6-methoxy-3,3-dimethylchroman-4-yl)carbamate]",IC50,[1],10 nM
same,IC50,[2],0.55 nM
"CC1(C)COc2cc(-c3ccc4c(c3)CCO4)ccc2C1NC(=O)O[C@@H]1CN2CCC1CC2 (stereo partly drawn) [Example 181, (S)-quinuclidin-3-yl (7-(2,3-dihydrobenzofuran-5-yl)-3,3-dimethylchroman-4-yl)carbamate]",IC50,[1],5.55 nM
same,IC50,[2],0.5 nM
"O=C(NC1CCOc2cc(-c3coc4ccccc34)ccc21)O[C@@H]1CN2CCC1CC2 (stereo partly drawn) [Example 43, (S)-quinuclidin-3-yl (7-(benzofuran-3-yl)chroman-4-yl)carbamate]",IC50,[1],0.02 nM
same,IC50,[2],0.58 nM
"CC1(C)COc2cc(-c3ccccn3)ccc2C1NC(=O)O[C@@H]1CN2CCC1CC2 (stereo partly drawn) [Example 266, (S)-quinuclidin-3-yl (3,3-dimethyl-7-(pyridin-2-yl)chroman-4-yl)carbamate]",IC50,[1],26.9 nM
same,IC50,[2],4.07 nM
"O=C(NC1CCSc2cc(-c3cccc(C(F)(F)F)c3)ccc21)O[C@@H]1CN2CCC1CC2 (stereo partly drawn) [Example 319, (S)-quinuclidin-3-yl (7-(3-(trifluoromethyl)phenyl)thiochroman-4-yl)carbamate]",IC50,[1],6.7 nM
same,IC50,[2],1.07 nM
"CC1(C)COc2cc(-c3ccc(F)cc3Cl)ccc2C1NC(=O)O[C@@H]1CN2CCC1CC2 (stereo partly drawn) [Example 231, (S)-quinuclidin-3-yl (7-(2-chloro-4-fluorophenyl)-3,3-dimethylchroman-4-yl)carbamate]",IC50,[1],1.5 nM
same,IC50,[2],0.62 nM
"O=C(NC1CCOc2cc(-c3ccc(OC(F)(F)F)cc3)ccc21)O[C@@H]1CN2CCC1CC2 (stereo partly drawn) [Example 16, (S)-quinuclidin-3-yl (7-(4-(trifluoromethoxy)phenyl)chroman-4-yl)carbamate]",IC50,[1],27.8 nM
same,IC50,[2],9.4 nM
"CC(C)c1cccc(-c2ccc3c(c2)OCCC3NC(=O)O[C@@H]2CN3CCC2CC3)c1 (stereo partly drawn) [Example 23, (S)-quinuclidin-3-yl (7-(3-isopropylphenyl)chroman-4-yl)carbamate]",IC50,[1],0.57 nM
same,IC50,[2],0.48 nM
"O=C(NC1CCOc2cc(-c3ccc4c(c3)OCCO4)ccc21)O[C@@H]1CN2CCC1CC2 (stereo partly drawn) [Example 37, (S)-quinuclidin-3-yl (7-(2,3-dihydrobenzo[b][1,4]dioxin-6-yl)chroman-4-yl)carbamate]",IC50,[1],9.47 nM
same,IC50,[2],1.4 nM
